Assay results: US20240050463A1, “THERAPEUTIC COMPOSITIONS AND METHODS FOR TREATING HEPATITIS B” (ARBUTUS BIOPHARMA CORPORATION, priority 2016, published 2024)
Counter-ions that a name gives are not always drawn. Like-named read-outs stand apart in the source and are kept apart here.

What was measured:
[1] = system: D type HBV in primary human hepatocytes (PHH); experiment: HBV DNA in culture supernatants of HBV-infected primary human hepatocytes (qPCR), MacSynergy; assay type: cell-based; conditions: for AVERAGE % INHIBITION: HBV DNA, COMPOUND 25 0.00 nM; for inhibition at 0.00012 µM / inhibition at 0.00037 µM / inhibition at 0.00333 µM / inhibition at 0.01 µM: Hepatitis B virus, Hepatocyte; for inhibition at 0.00012 µM: TDF 0.12 nM alone; for inhibition at 0.00037 µM: TDF 0.37 nM alone; for inhibition at 0.00333 µM: TDF 3.33 nM alone; for inhibition at 0.01 µM: TDF 10.00 nM alone
Description: (§1) The mouse liver perfusion was applied to isolate PHHs. The isolated hepatocytes were further purified by Percoll. The cells were resuspended with culture media and seeded into the 96-well plates (6×10^4 cell/well) or 48-well plates (1.2×10^5 cell/well). The PHHs were infected with a D type HBV one day post seeding (day 1).
(§2) On day 2, the test compounds were diluted and added into the cell culture plates. The culture media containing the compounds were refreshed every other day. The cell culture supernatants were collected on day 8 for the HBV DNA and antigen determinations.
(§3) The compounds were tested at 7 concentrations, 3-fold dilution, in triplicate.
(§4) Two compounds were tested at 5×5 matrix, in triplicate plates.
DNA in the culture supernatants harvested on days 8 were isolated with QIAamp 96 DNA Blood Kit (Qiagen-51161). For each sample, 100 μl of the culture supernatants was used to extract DNA. The DNA was eluted with 100 μl, 150 μl or 180 μl of AE. HBV DNA in the culture supernatants was quantified by qPCR. The combination effect was analyzed by the MacSynergy software. The primers are described below.

[2] = system: HBsAg, D type HBV in primary human hepatocytes (PHH); experiment: microbe, parasite or virus in culture; assay type: cell-based; conditions: Hepatitis B virus, Hepatocyte; for inhibition at 0.00012 µM: TDF 0.12 nM alone; for inhibition at 0.00037 µM: TDF 0.37 nM alone
Description: as §1, §2, §3, §4
(§5) HBsAg/HBeAg in the culture supernatants harvested on days 8 were measured by the HBsAg/HBeAg ELISA kit (Autobio) according to the manual. The samples were diluted with PBS to get the signal in the range of the standard curve. The inhibition rates were calculated with the formula below. The combination effect was analyzed by the MacSynergy software.
% Inh. HBsAg=[1−HBsAg quantity of sample/HBV quantity of DMSO control]×100.

[3] = system: HBsAg secretion in HepG2.2.15 cells; experiment: Inhibition of HBsAg in HepG2.2.15 cells (CLIA), checkerboard, MacSynergy II; assay type: cell-based, HBV (human hepatoblastoma HepG2 cells); conditions: for Additive % Inhibition (HBsAg) versus negative control: Trial 3
Description: In vitro combination studies were conducted using the method of Prichard and Shipman (Prichard M N, and Shipman C Jr., Antiviral Research, 1990, 14(4-5), 181-205; and Prichard M N, et. al., MacSynergy II). The HepG2.2.15 cell culture system is a cell line derived from human hepatoblastoma HepG2 cells that have been stably transfected with the adw2− subtype HBV genome as previously explained in Sells et al. (Proc. Natl. Acad. Sci. U. S. A, 1987. Vol 84:1005-1009). HepG2.2.15 cells secrete Dane-like viral particles, produce HBV DNA, and also produce the viral proteins, hepatitis B e antigen (HBeAg) and hepatitis B surface antigen (HBsAg).
To test the compound combinations, HepG2.2.15 (30,000 cells/well) were plated in 96 well tissue-culture treated microtiter plates in RPMI+L-Glutamine medium supplemented with 1% penicillin-streptomycin, 20 μg/mL geneticin (G418), 10% fetal bovine serum, and incubated in a humidified incubator at 37° C. and 5% CO2 overnight. […] […] The microtiter cell plates were incubated for a duration of 6 days in a humidified incubator at 37° C. and 5% CO2.
Untreated positive control samples (0.5% DMSO in media) were included on each plate in multiple wells. Following a 6 day-incubation, media was removed from treated cells for use in an HBsAg chemiluminescence immunoassay (CLIA) (Autobio Diagnostics, Cat No. CL0310-2). An HBsAg standard curve was generated to verify that the levels of HBsAg quantification were within the detection limits of the assay. The remaining inhibitor-treated cells were assessed for cytotoxicity by determination of the intracellular adenosine triphosphate (ATP) using a Cell-Titer Glo reagent (Promega) as per manufacturers instructions and by microscopic analysis of the cells throughout the duration of inhibitor treatment. Cell viability was calculated as a percentage of the untreated positive control wells.
The plates were read using an EnVision multimode plate reader (PerkinElmer Model 2104). […] The RLU data from the single compound treated cells were analyzed using XL-Fit module in Microsoft Excel to determine EC50 values using a 4-parameter curve fitting algorithm.

[4] = system: HBeAg, D type HBV in primary human hepatocytes (PHH); experiment: microbe, parasite or virus in culture; assay type: cell-based; conditions: Hepatitis B virus, Hepatocyte, read-out: Inhibitor B EC50, HBeAg endpoint; determined in an earlier separate experiment
Description: as §1, §2, §3, §4, §5
% Inh. HBeAg=[1−HBeAg quantity of sample/HBV quantity of DMSO control]×100.

[5] = system: HBV rcDNA in HepDE19 cells; experiment: Inhibition of rcDNA in HepDE19 cells (bDNA assay), checkerboard, MacSynergy II; assay type: cell-based, HBV (human hepatoma cell line); parameters: key to ADDITIVE INHIBITION: % inhibition of rcDNA production; conditions: Compound 3 0 μM
Description: In vitro combination studies were conducted using the method of Prichard and Shipman (Prichard M N, and Shipman C Jr., Antiviral Research, 1990, 14(4-5), 181-205; and Prichard M N, et. al., MacSynergy II). HepDE19 cell culture system is a HepG2 (human hepatocarcinoma) derived cell line that supports HBV DNA replication and cccDNA formation in a tetracycline (Tet)-regulated manner and produces HBV rcDNA and a detectable reporter molecule dependent on the production and maintenance of cccDNA (Guo et al 2007. J. Virol 81:12472-12484). HepDE19 (50,000 cells/well) were plated in 96 well collagen-coated tissue-culture treated microtiter plates in DMEM/F12 medium supplemented with 10% fetal bovine serum, 1% penicillin-streptomycin and 1 μg/ml tetracycline and incubated in a humidified incubator at 37° C. and 5% CO2 overnight. Next day, the cells were switched to fresh medium without tetracycline and incubated for 4 hrs at 37° C. and 5% CO2. […] The two inhibitors were tested both singly as well as in combinations in a checkerboard fashion such that each concentration of inhibitor A was combined with each concentration of inhibitor B to determine their combination effects on inhibition of rcDNA production. Following a 7 day-incubation of cells with compound combinations, the level of rcDNA present in the inhibitor-treated wells was measured using a Quantigene 2.0 bDNA assay kit (Affymetrix, Santa Clara, CA) with HBV specific custom probe set and manufacturers instructions. […] The RLU data from the single compound treated cells were analyzed using XL-Fit module in Microsoft Excel to determine EC50 values using a 4-parameter curve fitting algorithm. Concurrently, the effect of compounds on cell viability was assessed using replicate plates, plated at a density of 5,000 cells/well and incubated for 4 days, to determine the ATP content as a measure of cell viability using the cell-titer glo reagent (CTG; Promega Corporation, Madison, WI) as per manufacturer's instructions.
In vitro combination studies were conducted using the method of Prichard and Shipman (Prichard M N, Shipman C, Jr., Antiviral Res, 14, 181-205 (1990)). The HepDE19 cell line was developed as described in Guo et al. (Guo et al., J Virol, 81, 12472-12484 (2007)). It is a human hepatoma cell line stably transfected with the HBV genome, and which can express HBV pregenomic RNA and support HBV rcDNA (relaxed circular DNA) synthesis in a tetracycline-regulated manner. HepDE19 cells were plated in 96 well tissue-culture treated microtiter plates in DMEM/F12 medium supplemented with 10% fetal bovine serum+1% penicillin-streptomycin without tetracycline and incubated in a humidified incubator at 37° C. and 5% CO2 overnight. […] The two inhibitors were tested both singly as well as in combinations in a checkerboard fashion such that each concentration of inhibitor A was combined with each concentration of inhibitor B to determine their combination effects on inhibition of rcDNA production. Following a 48 hour-incubation, the level of rcDNA present in the inhibitor-treated wells was measured using a bDNA assay (Affymetrix) with HBV specific custom probe set and manufacturers instructions. […] Concurrently, the effect of inhibitor combinations on cell viability was assessed using replicate plates that were used to determine the ATP content as a measure of cell viability using the Cell-TiterGlo reagent (Promega) as per manufacturer's instructions.
In vitro combination studies were conducted using the method of Prichard and Shipman (1990) (Prichard M N, Shipman C, Jr. 1990. A three-dimensional model to analyze drug-drug interactions. Antiviral Res 14:181-205 AND Prichard M N. 1992. MacSynergy II, University of Michigan).

[6] = read-out: Additive inhibition, HBsAg
[7] = read-out: Average % inhibition, HBsAg
[8] = read-out: Additive inhibition, HBV DNA
[9] = read-out: Average % inhibition, HBV DNA

O=C(Nc1ccc(F)c(F)c1)c1cc(S(=O)(=O)NC2CCCC2)ccc1F [Compound 22]
AVERAGE % INHIBITION ([1]; COMPOUND 22 61.73 nM): −11.75% | AVERAGE % INHIBITION ([1]; COMPOUND 22 185.19 nM): −9.12% | AVERAGE % INHIBITION ([1]; COMPOUND 22 555.56 nM): −12.7% | AVERAGE % INHIBITION ([1]; COMPOUND 22 1666.67 nM): 17.94% | AVERAGE % INHIBITION ([1]; COMPOUND 22 5000.00 nM): 63.06%

CC(C)OC(=O)OCOP(=O)(CO[C@H](C)Cn1cnc2c(N)ncnc21)OCOC(=O)OC(C)C [TDF, tenofovir disoproxil fumarate]
inhibition at 0.00012 µM [2, 6]: -3.31% | inhibition at 0.00012 µM [2, 7]: -3.31% | inhibition at 0.00037 µM [2, 6]: -3.32% | inhibition at 0.00037 µM [2, 7]: -3.32% | inhibition at 0.00333 µM ([2]; read-out: Additive inhibition, HBsAg, TDF 3.33 nM alone): -1.28% | inhibition at 0.01 µM ([2]; read-out: Additive inhibition, HBsAg, TDF 10.00 nM alone): -6.65% | inhibition at 0.00333 µM ([2]; read-out: Average % inhibition, HBsAg, TDF 3.33 nM alone): -1.28% | inhibition at 0.01 µM ([2]; read-out: Average % inhibition, HBsAg, TDF 10.00 nM alone): -6.65% | inhibition at 0.00012 µM [1, 8]: -1.16% | inhibition at 0.00012 µM [1, 9]: -1.16% | inhibition at 0.00037 µM [1, 8]: -6.24% | inhibition at 0.00037 µM [1, 9]: -6.24% | inhibition at 0.00333 µM [1, 8]: 3.15% | inhibition at 0.00333 µM [1, 9]: 3.15% | inhibition at 0.01 µM [1, 8]: -15.4% | inhibition at 0.01 µM [1, 9]: -15.4%

COCCCOc1cc2c(cc1OC)-c1cc(=O)c(C(=O)O)cn1[C@H](C(C)C)C2 [Compound 5]
Additive % Inhibition (HBsAg) versus negative control ([3]; Compound 5 0.0001 μM alone): 69.99% | Additive % Inhibition (HBsAg) versus negative control ([3]; Compound 5 0.000316 μM alone): 82.39% | Additive % Inhibition (HBsAg) versus negative control ([3]; Compound 5 0.001 μM alone): 89.01% | Additive % Inhibition (HBsAg) versus negative control ([3]; Compound 5 0.00316 μM alone): 90.26% | Additive % Inhibition (HBsAg) versus negative control ([3]; Compound 5 0.1 μM alone): 86.26% | Additive % Inhibition (HBsAg) versus negative control ([3]; Compound 5 1.0E−05 μM alone): 46.36% | Additive % Inhibition (HBsAg) versus negative control ([3]; Compound 5 1.00E−06 μM alone): 22.68% | Additive % Inhibition (HBsAg) versus negative control ([3]; Compound 5 3.16E−06 μM alone): 34.18% | Additive % Inhibition (HBsAg) versus negative control ([3]; Compound 5 3.17E−05 μM alone): 56.34% | EC50 ([3]; Hepatitis B virus, HepG2.2.15, Trial 2, HBsAg by CLIA, read-out: Compound 5 EC50): 5 nM

CNC(=O)N[C@H]1CCOc2c(C(=O)Nc3ccc(F)c(F)c3)ccc(F)c21 [Compound 23]
EC50 [4]: 4.53 nM | EC50 ([2]; read-out: Inhibitor B EC50): 4.36 nM

CCOC(=O)C1=C(CN2CCOCC2)NC(c2nccs2)=NC1c1ccc(F)cc1Br (stereo not drawn) [GLS4]
ADDITIVE INHIBITION ([5]; GLS-4 0.007813 μM): −1.17 | ADDITIVE INHIBITION ([5]; GLS-4 0.01563 μM): −5.82 | ADDITIVE INHIBITION ([5]; GLS-4 0.03125 μM): 7.03 | ADDITIVE INHIBITION ([5]; GLS-4 0.0625 μM): 38.95 | ADDITIVE INHIBITION ([5]; GLS-4 0.125 μM): 77.82 | ADDITIVE INHIBITION ([5]; GLS-4 0.25 μM): 94.65 | ADDITIVE INHIBITION ([5]; GLS-4 0.5 μM): 97.48 | ADDITIVE INHIBITION ([5]; GLS-4 1 μM): 98.51 | ADDITIVE INHIBITION ([5]; GLS-4 2 μM): 98.22
